One data set has as its system miR-544 (human). The data set can be described thus: Effect on miR-544 in human MCF-10A cells assessed as reduction in expression level relative to control. Also noted: scale not given: the % may be the effect or the level left.
A short description of data set [1]: Induction of human MDA-MB-231 cells assessed as induces increasing in apoptotic rate by western blot analysis relative to control. In kind it is functional. (Immunoblotting shows a protein as a band on a membrane.)
For a further data set, the system named is pre-miR-544 (human). The data set can be described thus: Effect on pre-miR-544 in human MCF-10A cells assessed as fold increasing level.
Data set [2] can be described thus: Inhibition of miR-21 in human HeLa cells assessed as inhibition. It is filed as cell-based.
A further data set deals with HeLa. The data set can be described thus: Inhibition of pri-miR-21 in human HeLa cells assessed as reduction in expression level at 10 uM relative to control. In kind it is cell-based.
Data set [3] concerns MCF7. The data set can be described thus: Inhibition of miR-21 in human MCF7 cells assessed as fold increase at 10 uM by luciferase signalling assay. It is filed as cell-based.
The test system of data set [4] is MCF7. The data set is described as follows: Induction of apoptosis human MCF7 cells at 5 uM assessed as fold increase in apoptotic rate. In kind it is functional.
Data set [5] concerns MCF7. The data set can be described thus: Inhibition of miR-21 in human MCF7 cells assessed as fold increase in PDCD4 protein level. In kind it is cell-based.
The test system of data set [6] is MCF7. The data set is described as follows: Inhibition of miR-27a (unknown origin) transfected in human MCF7 cells assessed as fold increase at 20 uM by luciferase assay. In kind it is cell-based.
The test system of the next data set is Hepatitis C virus. The data set can be described thus: Antiviral activity against HCV. In kind it is functional, Hepacivirus hominis.
Data set [7] can be described thus: Inhibition of mature miR-122 (unknown origin) at 10 uM relative to control.
In another data set the test system is Huh7 (Homo sapiens). The data set can be described thus: Inhibition of miR-122 in human Huh7 cells assessed as fold increase at 10 uM by luciferase signal.
Data set [8] is described as follows: Inhibition of miR-122 (unknown origin).
Data set [9] can be described thus: Inhibition of miR-122 (unknown origin) by luciferase signalling.
Data set [10] is described as follows: Inhibition of pri-miR-122 (unknown origin) at 10 uM relative to control.
A short description of data set [11]: Inhibition of miR-206 (unknown origin).
The nature of data set [12]: Inhibition of myomiRs (unknown origin).
A short description of data set [13]: Inhibition of miRNA (unknown origin) by fluorescence polarization assay. On the technique in general: Fluorescence polarisation rises when a labelled molecule tumbles more slowly, as on binding a larger partner.
Data set [14] is described as follows: Inhibition of miRNA (unknown origin).
Data set [15] is described as follows: Effect on miR-96 in human MCF7 cells assessed as decrease in expression level at 40 uM relative to control. It is filed as functional. Also noted: scale not given: the % may be the effect or the level left.
In the next data set the test system is HCT-116. The data set can be described thus: Antiproliferative activity against human HCT-116 cells assessed as reduction in cell viability measured after 72 hrs by MTT assay. The conditions noted are these: HCT-116, 72 h. It is filed as functional, cell-based. For orientation: Tetrazolium dyes change colour on reduction, which living cells bring about.
Data set [16] in a line: Activation of miRNA (unknown origin).
Another data set concerns HepG2. The data set can be described thus: Cytotoxicity against human HepG2 cells assessed as reduction in cell viability measured after 24 hrs at 10 uM relative to control. It is filed as toxicity, cell-based. The conditions noted are these: hepg2, 24 h.
The nature of data set [17]: Activation of miR-122 (unknown origin) by luciferase assay.
The nature of data set [18]: Upregulation of GPD1L in human MDA-MB-231 cells assessed as fold increase in expression level. It is filed as functional.
Data set [19] is described as follows: In vivo inhibition of miR-210 in human MDA-MB-231 cells xenografted with SCID mouse assessed as reduction in protein level under hypoxia condition relative to control. In kind it is functional. Also noted: scale not given: the % may be the effect or the level left.
A short description of data set [20]: Effect on pri-miR-210 in human MDA-MB-231 cells assessed as fold increase at 200 nM. It is filed as functional.
A short description of data set [21]: Inhibition of miR-210 (unknown origin).
Data set [22] is described as follows: Effect on pre-miR-210 in human MDA-MB-231 cells assessed as fold increase at 200 nM. In kind it is functional.
Data set [23] can be described thus: In vivo inhibition of miR-210 in human MDA-MB-231 cells xenografted with SCID mouse assessed as reduction in […] level at 20 pmol relative to control. Also noted: scale not given: the % may be the effect or the level left.

One may read the EC50 as the concentration needed to bring the measured effect to its halfway point. By inhibition is commonly meant how much of the control response was suppressed. One may read the IC50 as the point on the concentration scale where inhibition reaches its midpoint.

`N#Cc1c(N2CCCC2)nc(N)c2c(N)nc(N3CCCC3)cc12`: the Activity in the data set on miR-544 (human) came to 90%; in [1] it was 60%. Moreover, in the data set on pre-miR-544 (human), the “fold change (FC)” value stood at 2.
Take `C#CCNC(=O)c1ccc(/N=N/c2ccc(N)cc2)cc1`: the half-maximal effective concentration (EC50) in [2] was found to be 2000 nM. In the data set with HeLa, the inhibition is 80%.
Consider `CN[C@@H]1[C@H](O[C@H]2[C@H](O[C@H]3[C@H](O)[C@@H](O)[C@H](N=C(N)N)[C@@H](O)[C@@H]3N=C(N)N)O[C@@H](C)[C@]2(O)C=O)O[C@@H](CO)[C@H](O)[C@H]1O` [STREPTOMYCIN], for which the fold change (FC) is 1.4 with MCF7 [3], 2 in the data set with MCF7 [4] and 2 in the data set on MCF7 [5].
`NC[C@@H]1O[C@H](O[C@H]2[C@@H](O)[C@H](O[C@@H]3[C@@H](O)[C@H](N)C[C@H](N)[C@H]3O[C@H]3O[C@H](CN)[C@@H](O)[C@H](O)[C@H]3N)O[C@@H]2CO)[C@H](N)[C@@H](O)[C@@H]1O`: the fold change (FC) with MCF7 [6] was found to be 1.2.
With `O=C(Nc1ccc2ccccc2c1)c1ccc(Cl)cc1Cl`, the Activity in the data set with Hepatitis C virus turned out to be 50%. Further, in [7], the inhibition amounted to 50%. Moreover, the fold change (FC) in the data set on Huh7 (Homo sapiens) worked out at 7.7. Further, half-maximal inhibition in data set [8] (IC50) required 3000 nM.
For `O=S(=O)(c1ccc2c(c1)CCCN2)N1CCC[C@H]2CCCC[C@@H]21`, half-maximal inhibition in data set [9] (IC50) was put at 600 nM. Besides, the inhibition in data set [10] is 90%. The compound also had an Activity in the data set on Hepatitis C virus of 50%. Also, in the data set on Huh7 (Homo sapiens), the fold change (FC) is 12.5.
Regarding `COC12C(=O)c3ccccc3C(=O)C1C(c1ccccc1)=C2c1ccc(OC(=O)OC(C)(C)C)c2ncccc12` (configuration not stated), the concentration for half-maximal inhibition (IC50) in [11] is 5000 nM; in data set [12], 2500 nM.
Consider `O=C(O)C1=CC(=C(c2ccc(O)c(C(=O)O)c2)c2ccc(O)c(C(=O)O)c2)C=CC1=O` [AURINTRICARBOXYLIC ACID], for which the half-maximal inhibitory concentration (IC50) in data set [13] and in data set [14] was 470 nM each time.
As for `CN1CCN(c2ccc3nc(-c4cc(C(C)(C)C)c(OCCCC(=O)NCCCN=[N+]=[N-])c(C(C)(C)C)c4)[nH]c3c2)CC1`, the Activity in [15] was found to be 90%.
Regarding `CCn1cc(C(=O)O)c(=O)c2cc(F)c(N3CCNCC3)nc21` [ENOXACIN], the half-maximal effective concentration (EC50) in the data set with HCT-116 came out at 124000 nM; in [16], 30000 nM.
In the case of `CN(C)CCN1C(=O)c2cccc3cccc(c23)C1=O`, the Activity in the data set on HepG2 was found to be 80%. In [17], a half-maximal effect (EC50) was put at 3000 nM.
For the compound `CN1CCN(c2ccc3nc(-c4ccc5[nH]c(-c6cccc(OCCCC(=O)NCCN=[N+]=[N-])c6)nc5c4)[nH]c3c2)CC1`, the “fold change (FC)” value in data set [18] came out at 5; in [20], 3; in data set [22], 2.6. The Activity in [19] was determined as 90%; in [23] it was 75%. In data set [21], this compound came in with a 50% inhibitory concentration (IC50) of 200 nM.

The record behind these values is ChEMBL document CHEMBL5244200, “MicroRNAs as novel endogenous targets for regulation and therapeutic treatments” (Medchemcomm, 2018).
